In patent US20260257992A1, “AGONISTS OF SMALL HETERODIMER PARTNER FOR CANCER THERAPY” (THE BOARD OF TRUSTEES OF THE UNIVERSITY OF ILLINOIS, priority 2023, published 2026):

Key:
4T1 metastatic lesions = assay: Outgrowth of established 4T1 lung metastatic lesions (intravenous graft); assay type: in vivo, mouse; settings: for Outgrowth of 4T1 metastatic lesions, combined with αPDL1: compound combined with αPDL1; for Outgrowth of established 4T1 metastatic lesions, single agent: lesions established 3 d before treatment
Description: (§1) FIG. 3A-3F. DSHN, a tool small molecule agonist of NR0B2 reduces macrophage/dendritic cell induced Treg expansion and tumor growth in murine models. […] (B) Dendritic cells (left-CD11B^+; CD11C^+) and CD4^+ T cells (right) were isolated from MMTV-PyMT tumors by FACS, and treated with vehicle or DSHN for 3d. The resulting frequency of Treg (CD4^+; CD25^+; FoxP3^+) was quantified by flow cytometry (right graph), (N=3-5/group, t test). […] The percentage of divided CD8+ T cells in the second round was quantified. (D) DSHN increases efficacy of αPDL1 therapy on orthotopic E0771 tumors. An optimal number of E0771 cells were grafted into FoxP3-EGFP mice and allowed to grow until tumors reached 100 mm^3. Mice were euthanized on day 19 (waterfall plot, Fisher's exact test). (E) DSHN increases efficacy of αPDL1 therapy on orthotopic 4T1 tumors. 4T1 cells were orthotopically grafted into mice and allowed to establish for 5d prior to treatment start. Mice were euthanized on day 16 (waterfall plot, Fisher's exact test). (F) DSHN reduces metastatic outgrowth of 4T1 tumors and enhances efficacy of αPDL1 compared to placebo (p) (2-way ANOVA followed by Šidák's multiple comparison test for day 16). 4T1 cells were grafted intravenously, and lung metastatic lesions allowed to establish for 3d before treatment commenced. At the end of the study, lungs were removed and imaged ex vivo, quantified data indicated (N=10, 1-way ANOVA followed by Newman-Keuls multiple comparison test). Representative luciferase images shown to the right. * or different letters denote P<0.05 using indicated statistical test.
FIG. 7A-7I. DSHN-OMe reduces tumor and metastatic growth in murine models, in a myeloid cell-NR0B2 dependent manner. (A) E0771 cells were grafted into control mice (NR0B2^+/+; LysMCre^+) or mice where NR0B2 was knocked out in myeloid immune cells (NR0B2^fl/fl; LysMCre^+). 8 days post-graft, daily treatment with placebo or DSHN-OMe was initiated and subsequent tumor growth followed through time. Different letters denote statistical difference on the final measurement (day 21, 2-Way ANOVA followed by Šidák's post-hoc, N=5-8). (B) Waterfall plot illustration of data in (A) showing tumor volume at final day of measurement. Asterisk indicates significant difference (Chi-squared test, P<0.05). (C) Lewis Lung cells were grafted into control mice (NR0B2^+/+; LysMCre^+) or mice where NR0B2 was knocked out in myeloid immune cells (NR0B2^fl/fl; LysMCre^+). 10 days post-graft, daily treatment with placebo or DSHN-OMe was initiated and subsequent tumor growth followed through time. […] (G) EMT6 metastatic lungs were assessed for Ki67 mRNA and (H) FOXP3 mRNA. (I) EMT6 metastatic lungs were assessed for CD8+ cytotoxic T cells (CD8+). […]

[1] = test system: inflammasome associated genes; assay: Inflammasome associated gene expression in BMDMs (LPS, nigericin); assay type: cell-based, mouse
Method: FIG. 8A-8D. DSHN-OMe attenuates induction of inflammasome associated genes when BMDMs are treated with both LPS and nigericin, not LPS alone. * indicates P<0.05 when comparing to DMSO.
Inflammasome activation, RNA extraction, quantitative real PCR. When comparing inflammasome responses, BMDMs were treated with 500 ng/mL LPS for 4 h 37° C. in complete RPMI 1640. After 4 hr priming, 15 μM Nigericin was added for 45 mins at 37° C. Next, media was removed, washed with PBS and inflammasome activation was assessed using qPCR or inflammasome caspase-1 activity was measured using Caspase-Glo® 1 inflammasome assay kit (G9951; Promega) according to manufacturer's instructions.

E0771 tumors = assay: Orthotopic syngeneic E0771 mammary tumor growth; assay type: in vivo, mouse
Description: as §1
FIG. 7A-7I. DSHN-OMe reduces tumor and metastatic growth in murine models, in a myeloid cell-NR0B2 dependent manner. (A) E0771 cells were grafted into control mice (NR0B2^+/+; LysMCre^+) or mice where NR0B2 was knocked out in myeloid immune cells (NR0B2^fl/fl; LysMCre^+). […] (G) EMT6 metastatic lungs were assessed for Ki67 mRNA and (H) FOXP3 mRNA. (I) EMT6 metastatic lungs were assessed for CD8+ cytotoxic T cells (CD8+). […]

Compound | Outgrowth of 4T1 metastatic lesions, combined with αPDL1 (4T1 metastatic lesions) | Outgrowth of established 4T1 metastatic lesions, single agent (4T1 metastatic lesions) | Expression of inflammasome associated genes, priming and activation signal [1] | Growth of established E0771 tumors, combined with αPDL1 (E0771 tumors; DSHN combined with αPDL1) | E0771 tumor growth, myeloid NR0B2 knockout (E0771 tumors; NR0B2fl/fl, LysMCre+ mice) | E0771 tumor growth (E0771 tumors; control NR0B2+/+, LysMCre+ mice, daily treatment from day 8)
CCN(CC)S(=O)(=O)c1cccc2cc(C(=O)O)c(O)cc12 [DSHN, reference compound] | reduced outgrowth even further than DSHN alone | slowed the growth of metastatic lesions | able to blunt the expression of inflammasome associated genes | decreased growth | – | –
CCN(CC)S(=O)(=O)c1cccc2cc(C(=O)OC)c(O)cc12 [DSHN-OMe, Methyl 5-(N,N-diethylsulfamoyl)-3-hydroxy-2-naphthoate] | did not significantly influence the effects of DSHN-OMe | significantly reduced the outgrowth of established 4T1 metastatic lesions | able to blunt the expression of inflammasome associated genes | – | no significant impact | significantly reduced E0771 tumor growth
